Legend:
[1] = system: TNF-α, IL-6 and IL-1β mRNA in THP-1 cell-line-derived macrophage; experiment: RT-PCR of cytokine mRNA in LPS-stimulated THP-1 derived macrophages; assay type: cell-based, human; conditions: THP-1 derived macrophage; 3 h pre-treatment, LPS 100 ng/mL 3 h
Text: MK2 is recognized for inducing the production of pathological cytokines that fuel inflammation, including IL‐6, TNF‐α, and IL‐1β. These cytokines are the classic downstream target gene of MK2 and are identified as significant contributors to the risk of inflammation‐driven cancer,[34], [35], [36] such as colorectal cancer and hepatocellular carcinoma. Therefore, we assessed the transcriptional levels of these typical downstream cytokines in human monocytic THP‐1 cell‐line‐derived macrophage and the mouse RAW264.7 macrophage cell line under the influence of compound 11. […] Taken together, our findings corroborate that compound 11 effectively impedes the transcription and production of these key MK2 downstream pro‐inflammatory cytokines.
FIGURE 4 Targeting cellular MK2 signaling with irreversible inhibition by compound 11. […] (C) The inhibitory effects of compound 11 on TNF‐α and IL‐6 production in LPS‐stimulated RAW264.7 macrophages for 24 h, measured by ELISA. […]
(§1) Total RNA was extracted from cultured cells using the EZ‐press RNA Purification Kit (EZBioscience). Complementary DNA was synthesized using the ABScript III RT Master Mix for qPCR with gDNA remover (ABclonal Technology) and was quantified with primers listed in Table S5. The relative mRNA expression levels were quantified through qPCR using the SYBR green gene expression assay (ABclonal Technology).

[2] = system: MRC1 and ARG-1 mRNA in RAW264.7 macrophages; experiment: RT-PCR of M2 markers in IL-4/IL-13 stimulated RAW264.7 macrophages; assay type: cell-based, mouse; conditions: IL-4/IL-13 20 ng/mL
Text: (§2) A previous study has reported that MK2 fostered M2‐like polarization of TAMs, driving a protumor and proangiogenic phenotype which in turn accelerates tumor progression.[21] We thus assessed the influence of compound 11 on macrophage polarization and function. Our experiments used human THP‐1 monocyte induced macrophages, mouse RAW264.7 macrophages, and mouse bone marrow‐derived macrophages (BMDM). These cells were induced into M2‐like macrophages using the classic IL‐4 and IL‐13 stimuli.
(§3) FIGURE 5 Inhibition of pro‐tumorigenic M2‐like polarization in macrophages by compound 11. (A–C) RT‐PCR analysis highlights the impact of compound 11 on MRC1 and ARG‐1 mRNA expression in various macrophage cells treated with IL‐4/IL‐13 alone or combined with compound 11 for 12 h or 24 h. […] Data are shown as the mean ± SD. ^* p < 0.05; ^*** p < 0.001 versus the vehicle group, determined by unpaired t test. […]
as §1

[3] = system: MRC1 and ARG-1 mRNA in bone marrow-derived macrophages (BMDM); experiment: RT-PCR of M2 markers in IL-4/IL-13 stimulated BMDM; assay type: cell-based, mouse; conditions: IL-4/IL-13 20 ng/mL
Text: as §2, §3, §1

[4] = system: TAMs and CD206+ TAMs in MC38 tumor; experiment: Flow cytometry of tumor infiltrating TAMs in MC38 tumor model; assay type: in vivo, mouse; conditions: treated 9 days
Method: as §3, with “h. (D) CD206 and Arg‐1 expression in bone marrow‐derived macrophages (BMDM) cells via flow cytometry post 48 h treatment of compound 11 and IL‐4/IL‐13. (E) The treatment effects of compound 11 in THP‐1 cells using western blot analysis. Cells were pretreated with compound 11 for 1 h and followed by IL‐4/IL‐13 treatment (30 min). (F) The influence of MK2 siRNA on MRC1 and ARG‐1 mRNA expression in THP‐1 cells by RT‐PCR analysis post‐IL‐4/IL‐13 stimulation (12 h).” for “h.”
Antibodies targeting specific proteins along with corresponding isotype controls or FMO controls were employed to examine the leukocyte infiltrate: CD11b, CD45, CD206, Arg‐1, and F4/80 (BD, eBioscience and Biolegend). […] Eventually, the gathered data were analyzed using the FlowJo software, with the gating strategies utilized for flow cytometry represented in Figure S5.

SMILES: C=CC(=O)Nc1cc(-c2cc(-c3cc4c([nH]3)CCNC4=O)ccn2)ccc1OC(F)(F)F [compound 11]
- effect on LPS-induced TNF-α, IL-6 and IL-1 mRNA expression [1]: significantly inhibited
- effect on transcriptional level of MRC1 and ARG-1 [2]: significantly suppressed
- effect on transcriptional level of MRC1 and ARG-1 [3]: significantly suppressed
- effect on total and M2-like (CD206+) TAM populations in tumor [4]: marked reduction
